These results are taken from patent US20240132489A1, “AROMATIC HETEROCYCLIC COMPOUND, PHARMACEUTICAL COMPOSITION, AND USE THEREOF” (GT APEIRON THERAPEUTICS LIMITED, priority 2020, published 2024).

As a reminder, the IC50 is the concentration that gives 50% inhibition.

Structures can show the parent of a compound that is named as a salt.

The target in experiment [1] is CDK7/cyclin H/MAT1 complex (Homo sapiens (Human), UniProt P50613). Nature of the experiment: In vitro enzymatic inhibitory activity test, CDK7. The class given is biochemical. The following applies: Caliper mobility shift, 180 min at 27° C.
In a further experiment the target is CDK2/cyclin E1 complex (Homo sapiens (Human), UniProt P24941). As to the kind of experiment: In vitro enzymatic inhibitory activity test, CDK2. The class given is biochemical. The conditions noted are these: Caliper mobility shift, 180 min at 27° C.
Another experiment has as its target CDK9/CyclinT1 (Homo sapiens (Human), UniProt P50750). Nature of the experiment: In vitro enzymatic inhibitory activity test, CDK9. The class given is biochemical. The following applies: Caliper mobility shift, 180 min at 27° C.
Experiment [2] addresses CDK12(aa686-1082)/cyclin K complex (Homo sapiens (Human), UniProt Q9NYV4). As to the kind of experiment: In vitro enzymatic inhibitory activity test, CDK12. The class given is biochemical. The following applies: Caliper mobility shift, 180 min at 27° C.
The subject of a further experiment is HCC70 cells. As to the kind of experiment: Cell bioactivity detection (CyQuant), HCC70. The class given is cell-based. The following applies: human breast cancer cells HCC70, 72 hours. A digest of the protocol: (§1)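 A2780 or HCC70 cells (2000/well, RPMI 1640 + 10% FBS) were seeded overnight, then treated for 72 h at 37° C, 5% CO2 with compound: top 10 μM, 1:4 dilutions, 9 points, 0.2% DMSO. Viable cell number was measured by CyQuant Direct nucleic-acid staining (≥60 min, 37° C) on an Acumen reader at 488 nm excitation, and IC50 was calculated.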

For a further experiment, the system named is A2780 cells. As to the kind of experiment: Cell bioactivity detection (CyQuant), A2780. The class given is cell-based, human. The following applies: ovarian carcinoma cells A2780, 72 hours. The method, boiled down: as §1

Sequence of CDK12(aa686-1082)/cyclin K complex (Q9NYV4 686-1082, species assumed): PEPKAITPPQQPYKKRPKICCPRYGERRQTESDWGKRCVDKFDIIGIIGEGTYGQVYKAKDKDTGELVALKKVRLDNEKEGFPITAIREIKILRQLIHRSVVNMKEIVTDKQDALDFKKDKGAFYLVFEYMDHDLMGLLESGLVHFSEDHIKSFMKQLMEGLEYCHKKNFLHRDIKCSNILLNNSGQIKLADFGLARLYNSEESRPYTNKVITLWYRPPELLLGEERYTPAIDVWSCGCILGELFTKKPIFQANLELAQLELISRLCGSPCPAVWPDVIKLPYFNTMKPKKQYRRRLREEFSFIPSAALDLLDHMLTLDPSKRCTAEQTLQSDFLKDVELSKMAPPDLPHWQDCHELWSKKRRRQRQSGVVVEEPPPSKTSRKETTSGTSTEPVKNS
Sequence of CDK12(aa686-1082)/cyclin K complex (O75909 whole entry partner, species assumed, the tested form may be a part): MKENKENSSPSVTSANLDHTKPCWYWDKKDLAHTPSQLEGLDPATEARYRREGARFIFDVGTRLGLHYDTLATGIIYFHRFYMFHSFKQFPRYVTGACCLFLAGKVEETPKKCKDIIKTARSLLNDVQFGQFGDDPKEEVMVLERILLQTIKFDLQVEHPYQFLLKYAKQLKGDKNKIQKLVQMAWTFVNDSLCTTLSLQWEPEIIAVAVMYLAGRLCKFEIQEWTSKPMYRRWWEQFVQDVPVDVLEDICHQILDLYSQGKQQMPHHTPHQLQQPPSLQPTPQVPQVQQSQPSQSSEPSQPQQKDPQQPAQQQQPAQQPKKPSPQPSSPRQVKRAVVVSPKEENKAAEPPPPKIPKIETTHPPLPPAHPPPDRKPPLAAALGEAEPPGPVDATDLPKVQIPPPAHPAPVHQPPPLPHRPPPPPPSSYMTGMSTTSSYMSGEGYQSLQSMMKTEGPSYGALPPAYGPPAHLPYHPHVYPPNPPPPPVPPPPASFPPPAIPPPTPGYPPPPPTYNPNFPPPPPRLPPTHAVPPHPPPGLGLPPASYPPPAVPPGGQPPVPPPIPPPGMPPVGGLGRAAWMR
Sequence of CDK7/cyclin H/MAT1 complex (P50613 whole entry, species assumed): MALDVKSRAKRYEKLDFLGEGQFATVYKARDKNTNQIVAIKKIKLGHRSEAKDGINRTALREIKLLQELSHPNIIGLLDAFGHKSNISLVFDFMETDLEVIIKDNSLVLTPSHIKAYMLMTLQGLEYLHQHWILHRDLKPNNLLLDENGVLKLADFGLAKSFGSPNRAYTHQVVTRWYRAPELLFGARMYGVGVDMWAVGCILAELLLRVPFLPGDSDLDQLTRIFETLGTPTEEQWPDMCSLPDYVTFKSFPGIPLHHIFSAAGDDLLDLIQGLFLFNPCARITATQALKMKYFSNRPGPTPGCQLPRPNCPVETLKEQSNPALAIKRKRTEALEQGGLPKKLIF
Sequence of CDK7/cyclin H/MAT1 complex (P51946 whole entry partner, species assumed): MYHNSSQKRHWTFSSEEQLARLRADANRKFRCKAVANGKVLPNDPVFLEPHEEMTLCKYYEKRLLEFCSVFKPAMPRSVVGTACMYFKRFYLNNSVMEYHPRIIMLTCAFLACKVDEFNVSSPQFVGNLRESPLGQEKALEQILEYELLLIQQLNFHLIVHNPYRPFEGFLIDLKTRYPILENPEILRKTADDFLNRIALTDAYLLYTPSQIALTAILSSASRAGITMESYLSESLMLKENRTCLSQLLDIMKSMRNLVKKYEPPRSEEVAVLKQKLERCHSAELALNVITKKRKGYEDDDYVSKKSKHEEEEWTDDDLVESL
Sequence of CDK7/cyclin H/MAT1 complex (P51948 whole entry partner, species assumed): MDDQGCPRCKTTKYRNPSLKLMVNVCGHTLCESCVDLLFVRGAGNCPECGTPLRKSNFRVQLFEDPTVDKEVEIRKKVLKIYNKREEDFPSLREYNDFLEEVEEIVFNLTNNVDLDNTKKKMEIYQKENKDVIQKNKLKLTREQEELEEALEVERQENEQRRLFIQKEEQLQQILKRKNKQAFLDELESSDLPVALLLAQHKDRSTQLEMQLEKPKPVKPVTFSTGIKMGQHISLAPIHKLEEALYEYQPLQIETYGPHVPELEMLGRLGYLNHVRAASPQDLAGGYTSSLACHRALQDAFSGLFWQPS
Sequence of CDK9/CyclinT1 (P50750 whole entry, species assumed, the tested form may be a part): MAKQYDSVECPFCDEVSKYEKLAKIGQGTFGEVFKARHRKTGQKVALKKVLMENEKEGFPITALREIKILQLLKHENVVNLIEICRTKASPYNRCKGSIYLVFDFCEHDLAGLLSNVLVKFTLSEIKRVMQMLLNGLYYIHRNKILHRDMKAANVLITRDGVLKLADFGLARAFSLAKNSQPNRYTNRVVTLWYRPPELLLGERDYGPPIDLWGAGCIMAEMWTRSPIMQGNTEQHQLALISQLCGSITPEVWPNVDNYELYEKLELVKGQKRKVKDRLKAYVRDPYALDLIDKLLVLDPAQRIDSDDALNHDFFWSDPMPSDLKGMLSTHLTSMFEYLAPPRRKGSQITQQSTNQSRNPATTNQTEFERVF
Sequence of CDK9/CyclinT1 (O60563 whole entry partner, species assumed, the tested form may be a part): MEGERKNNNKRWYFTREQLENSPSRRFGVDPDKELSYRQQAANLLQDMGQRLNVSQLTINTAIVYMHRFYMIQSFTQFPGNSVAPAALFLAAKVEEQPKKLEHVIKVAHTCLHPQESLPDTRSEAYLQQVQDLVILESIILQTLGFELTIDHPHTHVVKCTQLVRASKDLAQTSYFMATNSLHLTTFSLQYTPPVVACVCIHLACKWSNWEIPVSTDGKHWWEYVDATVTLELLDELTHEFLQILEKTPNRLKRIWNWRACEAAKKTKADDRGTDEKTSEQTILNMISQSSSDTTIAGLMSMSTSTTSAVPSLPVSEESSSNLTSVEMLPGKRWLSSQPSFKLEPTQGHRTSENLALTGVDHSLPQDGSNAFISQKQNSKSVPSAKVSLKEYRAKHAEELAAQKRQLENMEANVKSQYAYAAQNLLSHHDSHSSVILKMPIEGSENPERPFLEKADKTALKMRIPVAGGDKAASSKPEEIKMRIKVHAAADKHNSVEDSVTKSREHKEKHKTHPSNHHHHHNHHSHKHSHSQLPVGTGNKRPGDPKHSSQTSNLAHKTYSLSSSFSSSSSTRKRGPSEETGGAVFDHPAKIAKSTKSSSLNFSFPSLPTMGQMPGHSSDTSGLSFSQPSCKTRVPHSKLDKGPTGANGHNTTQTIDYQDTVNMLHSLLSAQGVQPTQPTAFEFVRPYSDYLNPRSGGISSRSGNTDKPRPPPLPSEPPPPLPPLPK

As to `FC(F)(F)c1cnc(N[C@H]2CCCNC2)nc1-c1c[nH]c2nc(C3CCOCC3)ccc12` [Compound 28, (S)—N-(piperidin-3-yl)-4-(6-(tetrahydro-2H-pyran-4-yl)-1H-pyrrolo[2,3-b]pyridin-3-yl)-5-(trifluoromethyl)pyrimidine-2-amine formate], the IC50 in experiment [1] turned out to be 6.96 nM; at CDK2/cyclin E1 complex it was 3.47 µM; at CDK9/CyclinT1, 3.63 µM; in experiment [2], 1100 nM; in the experiment on HCC70 cells (Homo sapiens, HCC70, 72 h), 7.7 nM; in the experiment with A2780 cells (Homo sapiens, A2780, 72 h), 7.8 nM.

As to `FC(F)(F)c1cnc(N[C@H]2CCCNC2)nc1-c1c[nH]c2nc(C3CCOC3)ccc12` (stereo partly drawn) [Compound 29, N—((S)-piperidin-3-yl)-4-(6-(tetrahydrofuran-3-yl)-1H-pyrrol[2,3-b]pyridin-3-yl)-5-(trifluoromethyl)pyrimidine-2-amine formate], the IC50 came out at 7.08 nM in experiment [1]; 1.26 µM at CDK2/cyclin E1 complex; 2.48 µM on CDK9/CyclinT1; 855 nM in experiment [2]; 3.1 nM in the experiment with HCC70 cells (Homo sapiens, HCC70, 72 h); 2.1 nM in the experiment on A2780 cells (Homo sapiens, A2780, 72 h).

For the compound `FC(F)(F)c1cnc(N[C@H]2CCCNC2)nc1-c1c[nH]c2nc(C3CCCCO3)ccc12` (stereo partly drawn) [Compound 30, N—((S)-piperidin-3-yl)-4-(6-(tetrahydropyran-2-yl)-1H-pyrrolo[2,3-b]pyridin-3-yl)-5-(trifluoromethyl)pyrimidine-2-amine formate], the IC50 in experiment [1] amounted to 10.5 nM; at CDK2/cyclin E1 complex it was 3.26 µM; on CDK9/CyclinT1, 9.53 µM; in experiment [2] it was 2150 nM; with HCC70 cells (Homo sapiens, HCC70, 72 h) it was 20 nM; in the experiment on A2780 cells (Homo sapiens, A2780, 72 h) it was 5.6 nM.

Regarding `FC(F)(F)c1cnc(N[C@H]2CCCNC2)nc1-c1c[nH]c2nc(C34CCOCC3C4)ccc12` (stereo partly drawn) [Compound 31, 4-(6-(3-oxabicyclo[4.1.0]heptan-6-yl)-1H-pyrrolo[2,3-b]pyridin-3-yl)-N—((S)-piperidin-3-yl)-5-(trifluoromethyl)pyrimidine-2-amine formate], the IC50 in experiment [1] was found to be 8.13 nM; at CDK2/cyclin E1 complex, 0.968 µM; on CDK9/CyclinT1 it was 1.48 µM; in experiment [2], 517 nM; in the experiment with HCC70 cells (Homo sapiens, HCC70, 72 h), 5.8 nM; in the experiment with A2780 cells (Homo sapiens, A2780, 72 h), 4.1 nM.

`FC(F)(F)c1cnc(N[C@H]2CCCNC2)nc1-c1c[nH]c2nc(N3CC4CCC3CO4)ccc12` (stereo partly drawn) [Compound 32, 4-(6-(2-oxo-5-azabicyclo[2.2.2]octan-5-yl)-1H-pyrrol[2,3-b]pyridin-3-yl)-N—((S)-piperidin-3-yl)-5-(trifluoromethyl)pyrimidine-2-amine]: the IC50 in experiment [1] came out at 19.9 nM; on CDK2/cyclin E1 complex, 3.63 µM; at CDK9/CyclinT1, 6.52 µM; in experiment [2], 3430 nM; in the experiment with HCC70 cells (Homo sapiens, HCC70, 72 h), 24 nM; in the experiment with A2780 cells (Homo sapiens, A2780, 72 h), 6.3 nM.

Consider `FC(F)(F)c1cnc(N[C@H]2CCCNC2)nc1-c1c[nH]c2nc(N3CCOC[C@@H]3C(F)(F)F)ccc12` [Compound 33, N—((S)-piperidin-3-yl)-5-(trifluoromethyl)-4-(6-((R)-3-(trifluoromethyl)morpholinyl)-1H-pyrrol[2,3-b]pyridin-3-yl)pyrimidine-2-amine], for which the IC50 was determined as 46.8 nM in experiment [1]; 3.23 µM at CDK2/cyclin E1 complex; 4.43 µM on CDK9/CyclinT1; 2010 nM in experiment [2]; 12 nM with HCC70 cells (Homo sapiens, HCC70, 72 h); 2.4 nM in the experiment on A2780 cells (Homo sapiens, A2780, 72 h).

`FC(F)(F)c1cnc(N[C@H]2CCCNC2)nc1-c1c[nH]c2nc(N3CC4CC(C3)O4)ccc12` [Compound 34, 4-(6-(6-oxo-3-azabicyclo[3.1.1]heptan-3-yl)-1H-pyrrol[2,3-b]pyridin-3-yl)-N—((S)-piperidin-3-yl)-5-(trifluoromethyl)pyrimidine-2-amine]: the IC50 in experiment [1] worked out at 40.2 nM; on CDK2/cyclin E1 complex, 1.27 µM; at CDK9/CyclinT1 it was 1.66 µM; in experiment [2] it was 1090 nM; in the experiment on HCC70 cells (Homo sapiens, HCC70, 72 h), 15 nM; in the experiment on A2780 cells (Homo sapiens, A2780, 72 h) it was 3.3 nM.

Take `FC(F)(F)c1cnc(N[C@@H]2CN3CCC2CC3)nc1-c1c[nH]c2nc(N3CCOCC3)ccc12` [Compound 44, (S)—N-(4-(6-morpholinyl-1H-pyrrol[2,3-b]pyridin-3-yl)-5-(trifluoromethyl)pyrimidin-2-yl)quinine-3-amine formate]: the IC50 was 131 nM in experiment [1]; over 10 µM on CDK2/cyclin E1 complex; 3.65 µM at CDK9/CyclinT1; 4460 nM in experiment [2]; 684 nM in the experiment on HCC70 cells (Homo sapiens, HCC70, 72 h); 253 nM with A2780 cells (Homo sapiens, A2780, 72 h).

`CC1(C)CC[C@H](Nc2ncc(C(F)(F)F)c(-c3c[nH]c4nc(N5CCOCC5)ccc34)n2)CN1` [Compound 60, (S)—N-(6,6-dimethylpiperidin-3-yl)-4-(6-morpholinyl-1H-pyrrol[2,3-b]pyridin-3-yl)-5-(trifluoromethyl)pyrimidine-2-amine]: the IC50 was 8.79 nM in experiment [1]; over 10 µM on CDK2/cyclin E1 complex; 8.07 µM on CDK9/CyclinT1; over 10000 nM in experiment [2]; 475 nM with HCC70 cells (Homo sapiens, HCC70, 72 h); 36 nM in the experiment on A2780 cells (Homo sapiens, A2780, 72 h).

Take `C[C@H]1COCCN1c1ccc2c(-c3nc(N[C@H]4CCC5(CC5)NC4)ncc3C(F)(F)F)c[nH]c2n1` [Compound 70, (S)—N-(4-(6-((S)-3-methylmorpholinyl)-1H-pyrrol[2,3-b]pyridin-3-yl)-5-(trifluoromethyl)pyrimidin-2-yl)-4-azaspiro[2.5]octan-6-amine formate]: the IC50 is 41.2 nM in experiment [1]; 37.6 µM at CDK2/cyclin E1 complex; over 50 µM at CDK9/CyclinT1; 49000 nM in experiment [2]; 484 nM in the experiment on HCC70 cells (Homo sapiens, HCC70, 72 h); 146 nM in the experiment with A2780 cells (Homo sapiens, A2780, 72 h).

Turning to `C[C@H]1COCCN1c1ccc2c(-c3nc(N[C@@H]4CNCC(F)(F)C4)ncc3C(F)(F)F)c[nH]c2n1` [Compound 71, N—((S)-5,5-difluoropiperidin-3-yl)-4-(6-((S)-3-methylmorpholinyl)-1H-pyrrol[2,3-b]pyridin-3-yl)-5-(trifluoromethyl)pyrimidine-2-amine], the IC50 is 31.7 nM in experiment [1]; 9.3 µM on CDK2/cyclin E1 complex; over 50 µM on CDK9/CyclinT1; 6680 nM in experiment [2]; 390 nM in the experiment with HCC70 cells; 547 nM in the experiment with A2780 cells.

`C[C@H]1CNC[C@@H](Nc2ncc(C(F)(F)F)c(-c3c[nH]c4nc(N5CCOC[C@@H]5C)ccc34)n2)C1` [Compound 72, 4-(6-((S)-3-methylmorpholinyl)-1H-pyrrol[2,3-b]pyridin-3-yl)-N-((3S,5R)-5-methylpiperidin-3-yl)-5-(trifluoromethyl)pyrimidine-2-amine]: the IC50 came out at 17.6 nM in experiment [1]; 3.35 µM on CDK2/cyclin E1 complex; 1.82 µM at CDK9/CyclinT1; 2540 nM in experiment [2]; 21 nM in the experiment with HCC70 cells; 2.8 nM with A2780 cells.

For the compound `C[C@H]1COCCN1c1ccc2c(-c3nc(N[C@@H]4CNC[C@@H](F)C4)ncc3C(F)(F)F)c[nH]c2n1` [Compound 73, N-((3S,5S)-5-fluoropyridin-3-yl)-4-(6-((S)-3-methylmorpholinyl)-1H-pyrrol[2,3-b]pyridin-3-yl)-5-(trifluoromethyl)pyrimidine-2-amine], the IC50 worked out at 11.5 nM in experiment [1]; 4.29 µM on CDK2/cyclin E1 complex; 3.35 µM on CDK9/CyclinT1; 3380 nM in experiment [2]; 35 nM in the experiment on HCC70 cells; 6.2 nM with A2780 cells.

For the compound `C[C@H]1COCCN1c1ccc2c(-c3nc(N[C@@H]4CNC[C@H](F)C4)ncc3C(F)(F)F)c[nH]c2n1` [Compound 74], the IC50 in experiment [1] was 10.2 nM; at CDK2/cyclin E1 complex, 27.3 µM; on CDK9/CyclinT1, over 50 µM; in experiment [2], 12000 nM; in the experiment with HCC70 cells it was 199 nM; in the experiment on A2780 cells it was 177 nM.

In the case of `C[C@H]1COCCN1c1nc2[nH]cc(-c3nc(N[C@H]4CCCNC4)ncc3C(F)(F)F)c2cc1F` [Compound 75, 4-(5-fluoro-6-((S)-3-methylmorpholinyl)-1H-pyrrol[2,3-b]pyridin-3-yl)-N—((S)-piperidin-3-yl)-5-(trifluoromethyl)pyrimidine-2-amine formate], the IC50 in experiment [1] is 8.5 nM; at CDK2/cyclin E1 complex, 2.38 µM; at CDK9/CyclinT1, 5.93 µM; in experiment [2], 3340 nM; in the experiment with HCC70 cells (Homo sapiens, HCC70, 72 h), 9.2 nM; in the experiment with A2780 cells (Homo sapiens, A2780, 72 h) it was 7.4 nM.

Consider `FC(F)(F)c1cnc(N[C@H]2CCCNC2)nc1-c1c[nH]c2cc(N3CCCC3)ccc12` [Compound 101, (S)—N-(Piperidin-3-Yl)-4-(6-(Pyrrolidin-1-Yl)-1H-Indol-3-Yl)-5-(Trifluoromethyl)Pyrimidine-2-Amine, reference compound], for which the IC50 in experiment [1] is 28.5 nM; at CDK2/cyclin E1 complex it was over 10 µM; on CDK9/CyclinT1, 4.61 µM; in experiment [2], 1600 nM; in the experiment on HCC70 cells (Homo sapiens, HCC70, 72 h) it was 232 nM; with A2780 cells (Homo sapiens, A2780, 72 h) it was 157 nM.

As to `FC(F)(F)c1cnc(N[C@H]2CCCNC2)nc1-c1c[nH]c2nc(N3C4COCC3C4)ccc12` [Compound 103, 4-(6-(3-oxo-6-azabicyclo[3.1.1]heptan-6-yl)-1H-pyrrol[2,3-b]pyridin-3-yl)-N—((S)-piperidin-3-yl)-5-(trifluoromethyl)pyrimidine-2-amine formate], the IC50 was 7.26 nM in experiment [1]; 2.83 µM on CDK2/cyclin E1 complex; 3.68 µM at CDK9/CyclinT1; 1390 nM in experiment [2]; 22.3 nM in the experiment with HCC70 cells (Homo sapiens, HCC70, 72 h); 18.2 nM in the experiment with A2780 cells (Homo sapiens, A2780, 72 h).
